{
  "source": "patent US11820782B2",
  "about": "“Salt forms of amino pyrazine purine based selective kinase inhibitor” (FTG BIO LLC, priority 2018, dated 2023)",
  "key": {"[1]": {"assay": "1 week stability of shortlisted salts at 40° C./75% RH, open", "type": "physicochemical", "conditions": "after 7 days at 40° C./75% RH, open"}, "[2]": {"assay": "Equilibrium solubility in pH 6.8 0.01M phosphate buffer by HPLC", "type": "physicochemical", "conditions": "pH6.8 0.01M potassium dihydrogen phosphate buffer"}},
  "data": [
    {"substance": "Fumarate", "values": [
      {"measurement": "% purity", "setting": "[1]; HPLC", "value": 95.81, "unit": "%"},
      {"measurement": "XRD", "setting": "[1]; physical form vs initial", "value": "Same as initial form"},
      {"measurement": "Solubility in pH 6.8 buffer", "setting": "[2]", "value": 2.62, "unit": "mg/mL"}
    ]}
  ]
}
